Patent US10428044B2, “3-amino-1,5,6,7-tetrahydro-4H-indol-4-ones” (Bayer Pharma Aktiengesellschaft, priority 2014, dated 2019)

Biological target: (recombinant) catalytic domain of human Bub1 (amino acids 704-1085) (Homo sapiens (Human), UniProt O43683)
Assay: Bub1 kinase assay (TR-FRET)
Type: biochemical
Settings: ATP 10 μM final, peptide substrate 1 μM final, 60 min at 22° C., read-out: Biological Assay: Bub1 kinase assay median IC50
Method in brief: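 Readout was TR-FRET between a Eu-labeled antibody complex recognizing phosphoserine and streptavidin-XL665 on the biotinylated peptide, after EDTA stop and 1 h at 22° C. The kinase reaction ran for 60 min at 22° C. Values are means or medians of repeat tests, from 4-parameter fits normalized to enzyme-free and inhibitor-free controls.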

Sequence of (recombinant) catalytic domain of human Bub1 (amino acids 704-1085) (O43683 704-1085): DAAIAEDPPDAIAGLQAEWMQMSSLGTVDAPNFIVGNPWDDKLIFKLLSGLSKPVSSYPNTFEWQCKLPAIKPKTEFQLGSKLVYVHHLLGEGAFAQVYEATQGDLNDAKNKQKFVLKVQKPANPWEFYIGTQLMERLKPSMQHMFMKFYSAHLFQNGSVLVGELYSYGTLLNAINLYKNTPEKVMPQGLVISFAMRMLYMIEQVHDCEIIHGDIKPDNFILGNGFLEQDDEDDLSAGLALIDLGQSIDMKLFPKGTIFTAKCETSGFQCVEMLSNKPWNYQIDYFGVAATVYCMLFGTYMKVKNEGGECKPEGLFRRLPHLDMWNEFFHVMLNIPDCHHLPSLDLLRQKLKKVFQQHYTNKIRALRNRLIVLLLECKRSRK

Structure (SMILES)	IC50 [nM]
O=C(Nc1cc(-c2[nH]c3c(c2Nc2ccccc2)C(=O)CCC3)ccn1)c1cnn(Cc2ccccc2)c1 [Example 449, 1-benzyl-N-{4-[4-oxo-3-(phenylamino)-4,5,6,7-tetrahydro-1H-indol-2-yl]pyridin-2-yl}-1H-pyrazole-4-carboxamide]	4.38
O=C1CCCc2[nH]c(-c3ccnc(F)c3)c(Nc3ccccc3)c21 [Example 44, 2-(2-fluoropyridin-4-yl)-3-(phenylamino)-1,5,6,7-tetrahydro-4H-indol-4-one]	17
O=C(Cc1cscn1)Nc1cc(-c2[nH]c3c(c2Nc2ccccc2)C(=O)CCC3)ccn1 [Example 287, N-{4-[4-oxo-3-(phenylamino)-4,5,6,7-tetrahydro-1H-indol-2-yl]pyridin-2-yl}-2-(1,3-thiazol-4-yl)acetamide]	48.4
Cc1ccc(Nc2c(-c3ccncc3)[nH]c3c2C(=O)CC(C)(C)C3)c(CO)c1 [Example 482, 3-{[2-(hydroxymethyl)-4-methylphenyl]amino}-6,6-dimethyl-2-(pyridin-4-yl)-1,5,6,7-tetrahydro-4H-indol-4-one]	12.2
CC1(C)CC(=O)c2c([nH]c(-c3ccncc3)c2Nc2cc(Cl)ccc2Cl)C1 [Example 78, 3-[(2,5-dichlorophenyl)amino]-6,6-dimethyl-2-(pyridin-4-yl)-1,5,6,7-tetrahydro-4H-indol-4-one]	6950
CC1(C)CC(=O)c2c([nH]c(-c3ccnc(CO)c3)c2Nc2ccccc2)C1 [Example 437, 2-[2-(hydroxymethyl)pyridin-4-yl]-6,6-dimethyl-3-(phenylamino)-1,5,6,7-tetrahydro-4H-indol-4-one]	579
Cc1cnc(COCC(=O)Nc2cc(-c3[nH]c4c(c3Nc3ccccc3)C(=O)CCC4)ccn2)o1 [Example 355, 2-[(5-methyl-1,3-oxazol-2-yl)methoxy]-N-{4-[4-oxo-3-(phenylamino)-4,5,6,7-tetrahydro-1H-indol-2-yl]pyridin-2-yl}acetamide]	6.45
CCC(=O)Nc1cccc(Nc2c(-c3ccncc3)[nH]c3c2C(=O)CC(C)(C)C3)c1 [Example 98, N-(3-{[6,6-dimethyl-4-oxo-2-(pyridin-4-yl)-4,5,6,7-tetrahydro-1H-indol-3-yl]amino}phenyl)propanamide]	1540
CC1(C)CC(=O)c2c([nH]c(-c3ccncc3)c2Nc2cc(-c3ccccc3)ccn2)C1 [Example 422, 6,6-dimethyl-3-[(4-phenylpyridin-2-yl)amino]-2-(pyridin-4-yl)-1,5,6,7-tetrahydro-4H-indol-4-one]	330
O=C1CCCc2[nH]c(-c3ccnc(NC(=O)[C@H]4C[C@@H]4F)c3)c(Nc3ccccc3)c21 [Example 251, (R,S/S,R)-2-fluoro-N-{4-[4-oxo-3-(phenylamino)-4,5,6,7-tetrahydro-1H-indol-2-yl]pyridin-2-yl}cyclopropanecarboxamide]	10.5
O=C(Nc1cc(-c2[nH]c3c(c2Nc2ccccc2)C(=O)CCC3)ccn1)c1cocn1 [Example 278, N-{4-[4-oxo-3-(phenylamino)-4,5,6,7-tetrahydro-1H-indol-2-yl]pyridin-2-yl}-1,3-oxazole-4-carboxamide]	12.7
Cn1cc(NC(=O)Nc2cc(-c3[nH]c4c(c3Nc3ccccc3)C(=O)CC(C)(C)C4)ccn2)cn1 [Example 391, 1-{4-[6,6-dimethyl-4-oxo-3-(phenylamino)-4,5,6,7-tetrahydro-1H-indol-2-yl]pyridin-2-yl}-3-(1-methyl-1H-pyrazol-4-yl)urea]	4.52
CC(=O)Nc1cc(-c2[nH]c3c(c2Nc2ccccc2)C(=O)CC(C)(C)C3)ccn1 [Example 36, N-{4-[6,6-dimethyl-4-oxo-3-(phenylamino)-4,5,6,7-tetrahydro-1H-indol-2-yl]pyridin-2-yl}acetamide]	26.4
CCC(O)c1cccc(Nc2c(-c3ccncc3)[nH]c3c2C(=O)CC(C)(C)C3)c1 (stereo not shown) [Example 154, 3-{[3-(1-hydroxypropyl)phenyl]amino}-6,6-dimethyl-2-(pyridin-4-yl)-1,5,6,7-tetrahydro-4H-indol-4-one]	3000
CC1(C)CC(=O)c2c([nH]c(-c3ccnc(Nc4cnn(Cc5ccccc5)c4)c3)c2Nc2ccccc2)C1 [Example 204, 2-{2-[(1-benzyl-1H-pyrazol-4-yl)amino]pyridin-4-yl}-6,6-dimethyl-3-(phenylamino)-1,5,6,7-tetrahydro-4H-indol-4-one]	42.6
CC1(C)CC(=O)c2c([nH]c(-c3ccncc3)c2Nc2ccccc2CCO)C1 [Example 427, 3-{[2-(2-hydroxyethyl)phenyl]amino}-6,6-dimethyl-2-(pyridin-4-yl)-1,5,6,7-tetrahydro-4H-indol-4-one]	8.4
Cn1cc(NC(=O)Nc2cc(-c3[nH]c4c(c3Nc3ccccc3)C(=O)CCC4)ccn2)cn1 [Example 390, 1-(1-methyl-1H-pyrazol-4-yl)-3-{4-[4-oxo-3-(phenylamino)-4,5,6,7-tetrahydro-1H-indol-2-yl]pyridin-2-yl}urea]	3.96
CC(C)CC1CC(=O)c2c([nH]c(-c3ccncc3)c2Nc2ccccc2)C1 (stereo not shown) [Example 29, 6-(2-methylpropyl)-3-(phenylamino)-2-(pyridin-4-yl)-1,5,6,7-tetrahydro-4H-indol-4-one]	6.17
Cn1cc(C(=O)Nc2cc(-c3[nH]c4c(c3Nc3ccccc3)C(=O)CC(C)(C)C4)ccn2)cn1 [Example 506, N-{4-[6,6-dimethyl-4-oxo-3-(phenylamino)-4,5,6,7-tetrahydro-1H-indol-2-yl]pyridin-2-yl}-1-methyl-1H-pyrazole-4-carboxamide]	7.77
CC1(C)CC(=O)c2c([nH]c(-c3ccncc3)c2Nc2cccc(Br)c2)C1 [Example 12, 3-[(3-bromophenyl)amino]-6,6-dimethyl-2-(pyridin-4-yl)-1,5,6,7-tetrahydro-4H-indol-4-one]	15.4
COc1cccc(Nc2c(-c3ccncc3)[nH]c3c2C(=O)CC(C)(C)C3)c1 [Example 52, 3-[(3-methoxyphenyl)amino]-6,6-dimethyl-2-(pyridin-4-yl)-1,5,6,7-tetrahydro-4H-indol-4-one]	99.8
O=C(Nc1cc(-c2[nH]c3c(c2Nc2ccccc2)C(=O)CCC3)ccn1)c1ccncc1 [Example 268, N-{4-[4-oxo-3-(phenylamino)-4,5,6,7-tetrahydro-1H-indol-2-yl]pyridin-2-yl}pyridine-4-carboxamide]	22.7
Nc1cc(-c2[nH]c3c(c2Nc2ccc(F)cc2)C(=O)CCC3)ccn1 [Example 211, 2-(2-aminopyridin-4-yl)-3-[(4-fluorophenyl)amino]-1,5,6,7-tetrahydro-4H-indol-4-one]	114
CC1(C)CC(=O)c2c([nH]c(-c3ccnc(NC(=O)C4CC4(F)F)c3)c2Nc2ccccc2)C1 (stereo not shown) [Example 477, N-{4-[6,6-dimethyl-4-oxo-3-(phenylamino)-4,5,6,7-tetrahydro-1H-indol-2-yl]pyridin-2-yl}-2,2-difluorocyclopropanecarboxamide]	6.62
CC(=O)Nc1cc(-c2[nH]c3c(c2Nc2cccc(F)c2)C(=O)CC(C(C)C)C3)ccn1 (stereo not shown) [Example 319, N-{4-[3-[(3-fluorophenyl)amino]-4-oxo-6-(propan-2-yl)-4,5,6,7-tetrahydro-1H-indol-2-yl]pyridin-2-yl}acetamide]	8.69
